Results on six molecules are retold here after patent US5604253A, “N-benzylindol-3-yl propanoic acid derivatives as cyclooxygenase inhibitors” (priority 1995, dated 1997).

One assay addresses cyclooxygenase-1 (Homo sapiens, UniProt P23219). The assay is described as follows: cell-based. The note with it: PGE2 production, human U-937 cells, 10 μM arachidonic acid; read-out: Cox-1 IC50. The procedure: (§1) Compounds were tested as inhibitors of cyclooxygenase activity in whole cell cyclooxygenase assays. Both of these assays measured prostaglandin E2 synthesis in response to arachidonic acid, using a radioimmunoassay. Cells used for these assays were human osteosarcoma 143 cells (which specifically express cyclooxygenase-2) and human U-937 cells (which specifically express cyclooxygenase-1). In these assays, 100% activity is defined as the difference between prostaglandin E2 synthesis in the absence and presence of arachidonate addition.
(§2) For cyclooxygenase assays, osteosarcoma cells are cultured in 1 mL of media in 24-well multidishes (Nunclon) until confluent (1-2×10^5 cells/well). U-937 cells are grown in spinner flasks and resuspended to a final density of 1.5×10^6 cells/mL in 24-well multidishes (Nunclon). Following washing and resuspension of osteosarcoma and U-937 cells in 1 mL of Hanks balanced salts solution (HBSS), 2 μL of a DMSO solution of test compound or DMSO vehicle is added, and samples gently mixed. All assays are performed in triplicate. Samples are then incubated for 5 or 15 minutes at 37° C., prior to the addition of arachidonic acid. Arachidonic acid (peroxide-free, Cayman Chemical) is prepared as a 10 mM stock solution in ethanol and further diluted 10-fold in HBSS. An aliquot of 10 μL of this diluted solution is added to the cells to give a final arachidonic acid concentration of 10 μM. Control samples are incubated with ethanol vehicle instead of arachidonic acid. Samples are again gently mixed and incubated for a further 10 min at 37° C. For osteosarcoma cells, reactions are then stopped by the addition of 100 μL of 1N HCl, with mixing and by the rapid removal of the solution from cell monolayers. For U-937 cells, reactions are stopped by the addition of 100 μL of 1N HCl, with mixing. Samples are then neutralized by the addition of 100 μL of 1N NaOH and PGE2 levels measured by radioimmunoassay.
(§3) In the assay, inhibition is determined by measuring the amount of prostaglandin E2 (PGE2) synthesized in the presence of arachidonic acid, cyclooxygenase-1 or cyclooxygenase-2 and a putative inhibitor.

Another assay addresses T1, cyclooxygenase-2 (Homo sapiens, UniProt P35354).
T1 sequence (P35354 18-604): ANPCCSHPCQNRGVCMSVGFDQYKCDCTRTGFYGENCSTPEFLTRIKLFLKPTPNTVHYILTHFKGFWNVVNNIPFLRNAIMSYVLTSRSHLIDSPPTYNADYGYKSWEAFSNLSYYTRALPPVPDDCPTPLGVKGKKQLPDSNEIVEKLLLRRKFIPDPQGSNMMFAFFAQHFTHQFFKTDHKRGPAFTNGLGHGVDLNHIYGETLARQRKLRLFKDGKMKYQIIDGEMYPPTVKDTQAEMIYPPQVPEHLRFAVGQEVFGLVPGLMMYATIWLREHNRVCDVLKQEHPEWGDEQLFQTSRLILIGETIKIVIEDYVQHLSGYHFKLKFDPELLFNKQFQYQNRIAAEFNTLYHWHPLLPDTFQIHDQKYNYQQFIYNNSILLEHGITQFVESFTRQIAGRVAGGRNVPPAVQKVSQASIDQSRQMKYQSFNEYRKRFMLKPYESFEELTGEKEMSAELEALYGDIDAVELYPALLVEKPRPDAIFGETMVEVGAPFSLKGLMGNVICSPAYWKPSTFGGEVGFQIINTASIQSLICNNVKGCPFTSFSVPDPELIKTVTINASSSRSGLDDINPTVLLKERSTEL
The assay is described as follows: cell-based. The note with it: PGE2 production, human osteosarcoma 143 cells, 10 μM arachidonic acid; read-out: Cox-2 IC50. The procedure:
as §1, §2, §3

In a further assay the test system is Rat Paw Edema. The assay is described as follows: Rat paw edema assay (carrageenan). The class given is in vivo, Sprague-Dawley rat. The procedure: Male Sprague-Dawley rats (150-200 g) are fasted overnight and are given po either vehicle (1% methocel or 5% Tween 80) or a test compound. One hr later, a line is drawn using a permanent marker at the level above the ankle in one hind paw to define the area of the paw to be monitored. The paw volume (V0) is measured using a plethysmometer (Ugo-Basile, Italy) based on the principle of water displacement. The animals are then injected subplantarly with 50 μl of 1% carrageenan solution in saline (FMC Corp, Maine) into the paw using an insulin syringe with a 25-gauge needle (i.e., 500 μg carrageenan per paw). Three hr later, the paw volume (V3) is measured and the increases in paw volume (V3 -V0) are calculated. The animals are sacrificed by CO2 asphyxiation and the absence or presence of stomach lesions scored. Data is compared with the vehicle-control values and percent inhibition calculated. All treatment groups are coded to eliminate observer bias.

[1] abbreviates: edema inhibition, rat, po 1 hr before carrageenan, paw volume at 3 hr, read-out: ED30.

Each structure is given as a SMILES string. pIC50: −log10 of the molar value. Where two headings read alike, the source gives them in different places.

cyclooxygenase-1, sequence (P23219 24-599): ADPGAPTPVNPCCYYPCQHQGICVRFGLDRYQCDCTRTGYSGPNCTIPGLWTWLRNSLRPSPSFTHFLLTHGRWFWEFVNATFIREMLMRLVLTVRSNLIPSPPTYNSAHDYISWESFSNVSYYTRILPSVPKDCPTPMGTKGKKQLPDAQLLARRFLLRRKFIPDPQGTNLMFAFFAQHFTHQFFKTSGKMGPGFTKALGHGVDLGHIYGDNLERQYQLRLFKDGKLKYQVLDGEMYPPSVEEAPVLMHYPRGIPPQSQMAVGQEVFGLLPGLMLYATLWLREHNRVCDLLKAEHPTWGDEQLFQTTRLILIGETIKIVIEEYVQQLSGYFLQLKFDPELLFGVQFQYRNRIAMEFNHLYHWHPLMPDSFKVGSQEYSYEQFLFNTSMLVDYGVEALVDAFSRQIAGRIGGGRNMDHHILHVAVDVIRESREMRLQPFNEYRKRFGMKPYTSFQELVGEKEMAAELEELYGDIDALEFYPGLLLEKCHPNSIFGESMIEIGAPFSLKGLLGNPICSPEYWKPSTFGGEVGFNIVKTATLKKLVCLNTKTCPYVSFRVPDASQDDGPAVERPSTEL

In general, pIC50 refers to the IC50 on a negative log10 scale, so that one unit is a factor of ten. Turning to `COc1ccc2c(c1)c([C@@H]1C[C@H]1C(=O)[O-])c(C)n2Cc1ccc(Br)cc1.[Na+]` (relative stereo) [sodium salt], the figures for the pIC50 on cyclooxygenase-1 and on cyclooxygenase-2 were < 5.00 and 7.34, respectively.

As to `COc1ccc2c(c1)c(C(C)C(=O)O)c(C)n2Cc1ccc(Cl)cc1` (stereo not drawn) [MK-555, α-(1-p-chlorobenzyl-2-methyl-5-methoxy-3-indolyl)propionic acid, reference compound], the ED30 in the assay on Rat Paw Edema (setting [1]) was determined as 3 mg/kg.

In the case of `COc1ccc2c(c1)c(C(C)CC(=O)[O-])c(C)n2Cc1ccc(Br)cc1.[Na+]` (racemic) [sodium salt], the negative-log IC50 (pIC50) was < 5.00 at cyclooxygenase-1 and 8.40 at cyclooxygenase-2.

Molecule `COc1ccc2c(c1)c([C@@H]1C[C@H]1C(=O)[O-])c(C)n2Cc1ccc(Br)cc1.[Na+]` (relative stereo) yielded an ED30 with Rat Paw Edema (Rattus norvegicus, po, 3 h) of 0.6 mg/kg.

In the assay on Rat Paw Edema (Rattus norvegicus, po, 3 h), `COc1ccc2c(c1)c(C(C)CC(=O)[O-])c(C)n2Cc1ccc(Br)cc1.[Na+]` (racemic) gave an ED30 of 0.7 mg/kg.

For `COc1ccc2c(c1)c(CC(=O)O)c(C)n2C(=O)c1ccc(Cl)cc1` [Indomethacin, reference compound], the ED30 in the assay with Rat Paw Edema (setting [1]) was 0.9 mg/kg.
